What all share (assay type): functional
In one assay the test system is Salmonella enterica. Nature of the assay: Antibacterial activity against Salmonella enterica ATCC 14028 by micro broth dilution method. A general note: Dilution methods test growth across graded concentrations, often in twofold steps.
In assay [1] the test system is Escherichia coli. Nature of the assay: Antibacterial activity against Escherichia coli JM109 by micro broth dilution method.
Assay [2] deals with Staphylococcus aureus. Briefly: Antibacterial activity against Staphylococcus aureus ATCC 25923 by micro broth dilution method.
Assay [3] can be described thus: Antibacterial activity against Bacillus proteus ATCC 13315 by micro broth dilution method.
The subject of a further assay is Saccharomyces cerevisiae. Briefly: Antifungal activity against Saccharomyces cerevisiae ATCC 9763 after 24 hrs by micro broth dilution method. The note with it: ATCC 9763, 24 h.
A further assay has as its system Pseudomonas aeruginosa. Briefly: Antibacterial activity against Pseudomonas aeruginosa ATCC 27853 by micro broth dilution method.
Assay [4] concerns Escherichia coli. Nature of the assay: Antibacterial activity against Escherichia coli DH52 by micro broth dilution method.
The subject of assay [5] is Staphylococcus aureus. Nature of the assay: Antibacterial activity against methicillin-resistant Staphylococcus aureus N315 by micro broth dilution method.
A further assay concerns Bacillus spizizenii. Briefly: Antibacterial activity against Bacillus subtilis ATCC 6633 by micro broth dilution method.
Assay [6] in a line: Antifungal activity against Candida mycoderma ATCC 9888 after 24 hrs by micro broth dilution method. The note with it: Candida vini.
The next assay concerns Cyberlindnera jadinii. Nature of the assay: Antifungal activity against Candida utilis ATCC 9950 after 24 hrs by micro broth dilution method. The note with it: Williopsis jadinii, ATCC 9950, 24 h.
Another assay has as its system Micrococcus luteus. Nature of the assay: Antibacterial activity against Micrococcus luteus ATCC 4698 by micro broth dilution method. The note with it: NCTC 2665.
In another assay the test system is Aspergillus flavus. Briefly: Antifungal activity against Aspergillus flavus ATCC 204304 after 24 hrs by micro broth dilution method. The note with it: ATCC 204304, 24 h.
Another assay has as its system Candida albicans. Briefly: Antifungal activity against Candida albicans ATCC 10231 after 24 hrs by micro broth dilution method. The note with it: ATCC 10231, 24 h.
The next assay concerns Shigella dysenteriae. Nature of the assay: Antibacterial activity against Shigella dysenteriae by micro broth dilution method.

The text below walks through data of ChEMBL document CHEMBL3769303, “Discovery of membrane active benzimidazole quinolones-based topoisomerase inhibitors as potential DNA-binding antimicrobial agents” (Eur J Med Chem, 2016).

≈ marks a conversion by molar mass, not a printed value.

As usually defined, the MIC is the lowest concentration found to suppress growth. As a reminder, the MIC80 is an inhibitory concentration at the 80% level, which refers to growth in some studies and to a panel of isolates in others. A low value points to greater potency. As to `CCn1cc(C(=O)O)c(=O)c2cc(F)c(N3CCN(Cc4nc5ccccc5n4Cc4ccc(F)cc4)CC3)cc21`, the MIC stood at 8 µg/mL (≈ 14.3 µM) against Salmonella enterica; 32 µg/mL (≈ 57.4 µM) in the assay with Escherichia coli [1]; 8 µg/mL (≈ 14.3 µM) with Staphylococcus aureus [2]; 32 µg/mL (≈ 57.4 µM) in assay [3]; 8 µg/mL (≈ 14.3 µM) with Pseudomonas aeruginosa; 32 µg/mL (≈ 57.4 µM) with Escherichia coli [4]. Moreover, the MIC turned out to be 16 µg/mL (≈ 28.7 µM) in the assay on Staphylococcus aureus [5], 8 µg/mL (≈ 14.3 µM) in the assay with Bacillus spizizenii, 8 µg/mL (≈ 14.3 µM) with Micrococcus luteus and 16 µg/mL (≈ 28.7 µM) against Shigella dysenteriae. Besides, the MIC80 came to 8 µg/mL (≈ 14.3 µM) against Saccharomyces cerevisiae; 32 µg/mL (≈ 57.4 µM) in assay [6]; 8 µg/mL (≈ 14.3 µM) in the assay with Cyberlindnera jadinii; 16 µg/mL (≈ 28.7 µM) with Aspergillus flavus; 8 µg/mL (≈ 14.3 µM) with Candida albicans.
For `O=C(O)c1cn(C2CC2)c2cc(N3CCN(CNc4nc5ccccc5[nH]4)CC3)c(F)cc2c1=O`, the minimum inhibitory concentration (MIC) against Salmonella enterica came out at 1 µg/mL (≈ 2.1 µM); in the assay with Escherichia coli [1], 4 µg/mL (≈ 8.39 µM); against Staphylococcus aureus [2], 1 µg/mL (≈ 2.1 µM); in assay [3], 1 µg/mL (≈ 2.1 µM); in the assay with Pseudomonas aeruginosa it was 0.5 µg/mL (≈ 1.05 µM); in the assay on Escherichia coli [4] it was 1 µg/mL (≈ 2.1 µM). The MIC with Staphylococcus aureus [5] was found to be 0.25 µg/mL (≈ 0.525 µM); in the assay on Bacillus spizizenii it was 1 µg/mL (≈ 2.1 µM); with Micrococcus luteus, 1 µg/mL (≈ 2.1 µM); in the assay with Shigella dysenteriae, 0.25 µg/mL (≈ 0.525 µM). In addition, the MIC80 with Saccharomyces cerevisiae was 4 µg/mL (≈ 8.39 µM); in assay [6], 0.5 µg/mL (≈ 1.05 µM); against Cyberlindnera jadinii, 8 µg/mL (≈ 16.8 µM); in the assay with Aspergillus flavus it was 16 µg/mL (≈ 33.6 µM); with Candida albicans it was 1 µg/mL (≈ 2.1 µM).
Consider `O=C(O)c1cn(C2CC2)c2cc(N3CCN(Cc4nc5ccccc5n4Cc4ccc([N+](=O)[O-])cc4)CC3)c(F)cc2c1=O`, for which the MIC against Salmonella enterica came out at 16 µg/mL (≈ 26.8 µM); against Escherichia coli [1], 8 µg/mL (≈ 13.4 µM); against Staphylococcus aureus [2] it was 4 µg/mL (≈ 6.7 µM); in [3], 8 µg/mL (≈ 13.4 µM); with Pseudomonas aeruginosa it was 4 µg/mL (≈ 6.7 µM); with Escherichia coli [4] it was 16 µg/mL (≈ 26.8 µM). Also, the MIC against Staphylococcus aureus [5] amounted to 2 µg/mL (≈ 3.35 µM); with Bacillus spizizenii, 4 µg/mL (≈ 6.7 µM); in the assay with Micrococcus luteus, 8 µg/mL (≈ 13.4 µM); in the assay on Shigella dysenteriae, 8 µg/mL (≈ 13.4 µM). Besides, the MIC80 came out at 1 µg/mL (≈ 1.68 µM) against Saccharomyces cerevisiae; 4 µg/mL (≈ 6.7 µM) in [6]; 2 µg/mL (≈ 3.35 µM) against Cyberlindnera jadinii; 1 µg/mL (≈ 1.68 µM) against Aspergillus flavus; 2 µg/mL (≈ 3.35 µM) against Candida albicans.
For the molecule `COC(=O)c1cn(C2CC2)c2cc(N3CCN(/C=N\c4nc5ccccc5[nH]4)CC3)c(F)cc2c1=O`, the minimal inhibitory concentration (MIC) stood at 4 µg/mL (≈ 8.19 µM) in the assay on Salmonella enterica; 8 µg/mL (≈ 16.4 µM) against Escherichia coli [1]; 32 µg/mL (≈ 65.5 µM) against Staphylococcus aureus [2]; 4 µg/mL (≈ 8.19 µM) in assay [3]; 2 µg/mL (≈ 4.09 µM) in the assay on Pseudomonas aeruginosa; 8 µg/mL (≈ 16.4 µM) against Escherichia coli [4]. The MIC against Staphylococcus aureus [5] amounted to 64 µg/mL (≈ 131 µM); in the assay with Bacillus spizizenii, 2 µg/mL (≈ 4.09 µM); against Micrococcus luteus it was 4 µg/mL (≈ 8.19 µM); against Shigella dysenteriae, 8 µg/mL (≈ 16.4 µM). Besides, the MIC80 against Saccharomyces cerevisiae came out at 2 µg/mL (≈ 4.09 µM); in assay [6], 16 µg/mL (≈ 32.8 µM); in the assay on Cyberlindnera jadinii it was 8 µg/mL (≈ 16.4 µM); with Aspergillus flavus, 4 µg/mL (≈ 8.19 µM); in the assay with Candida albicans, 32 µg/mL (≈ 65.5 µM).
On to `CCn1cc(C(=O)O)c(=O)c2cc(F)c(N3CCN(Cc4nc5ccccc5n4Cc4cccc(Cl)c4)CC3)cc21`, for which the MIC against Salmonella enterica is 4 µg/mL (≈ 6.97 µM); in the assay with Escherichia coli [1], 64 µg/mL (≈ 111 µM); in the assay with Staphylococcus aureus [2] it was 64 µg/mL (≈ 111 µM); in assay [3], 32 µg/mL (≈ 55.7 µM); with Pseudomonas aeruginosa, 2 µg/mL (≈ 3.48 µM); against Escherichia coli [4] it was 8 µg/mL (≈ 13.9 µM). Moreover, the MIC turned out to be 2 µg/mL (≈ 3.48 µM) with Staphylococcus aureus [5], 16 µg/mL (≈ 27.9 µM) against Bacillus spizizenii, 2 µg/mL (≈ 3.48 µM) in the assay with Micrococcus luteus and 64 µg/mL (≈ 111 µM) in the assay with Shigella dysenteriae. Moreover, the MIC80 stood at 8 µg/mL (≈ 13.9 µM) in the assay with Saccharomyces cerevisiae; 2 µg/mL (≈ 3.48 µM) in assay [6]; 4 µg/mL (≈ 6.97 µM) in the assay on Cyberlindnera jadinii; 1 µg/mL (≈ 1.74 µM) against Aspergillus flavus; 8 µg/mL (≈ 13.9 µM) in the assay with Candida albicans.
For the molecule `CCn1cc(C(=O)O)c(=O)c2cc(F)c(N3CCN(c4nc5ccccc5[nH]4)CC3)cc21`, the minimal inhibitory concentration (MIC) is 2 µg/mL (≈ 4.59 µM) in the assay with Salmonella enterica; 8 µg/mL (≈ 18.4 µM) with Escherichia coli [1]; 2 µg/mL (≈ 4.59 µM) against Staphylococcus aureus [2]; 1 µg/mL (≈ 2.3 µM) in assay [3]; 2 µg/mL (≈ 4.59 µM) with Pseudomonas aeruginosa; 2 µg/mL (≈ 4.59 µM) against Escherichia coli [4]. The minimum inhibitory concentration (MIC) against Staphylococcus aureus [5] was 4 µg/mL (≈ 9.19 µM); with Bacillus spizizenii it was 2 µg/mL (≈ 4.59 µM); against Micrococcus luteus it was 4 µg/mL (≈ 9.19 µM); with Shigella dysenteriae, 4 µg/mL (≈ 9.19 µM). Further, the MIC80 was found to be 32 µg/mL (≈ 73.5 µM) in the assay on Saccharomyces cerevisiae; 16 µg/mL (≈ 36.7 µM) in assay [6]; 8 µg/mL (≈ 18.4 µM) in the assay with Cyberlindnera jadinii; 16 µg/mL (≈ 36.7 µM) with Aspergillus flavus; 8 µg/mL (≈ 18.4 µM) in the assay with Candida albicans.
In the case of `CCn1c(CN2CCN(c3cc4c(cc3F)c(=O)c(C(=O)O)cn4C3CC3)CC2)nc2ccccc21`, the minimal inhibitory concentration (MIC) against Salmonella enterica is 0.5 µg/mL (≈ 1.02 µM); against Escherichia coli [1] it was 128 µg/mL (≈ 261 µM); in the assay with Staphylococcus aureus [2], 256 µg/mL (≈ 523 µM); in assay [3], 0.5 µg/mL (≈ 1.02 µM); with Pseudomonas aeruginosa, 2 µg/mL (≈ 4.09 µM); with Escherichia coli [4] it was 2 µg/mL (≈ 4.09 µM). Moreover, the MIC in the assay with Staphylococcus aureus [5] came out at 128 µg/mL (≈ 261 µM); against Bacillus spizizenii, 0.5 µg/mL (≈ 1.02 µM); in the assay on Micrococcus luteus, 2 µg/mL (≈ 4.09 µM); with Shigella dysenteriae it was 8 µg/mL (≈ 16.3 µM). Further, the MIC80 in the assay on Saccharomyces cerevisiae stood at 128 µg/mL (≈ 261 µM); in assay [6], 2 µg/mL (≈ 4.09 µM); in the assay with Cyberlindnera jadinii it was 2 µg/mL (≈ 4.09 µM); in the assay on Aspergillus flavus it was 4 µg/mL (≈ 8.17 µM); with Candida albicans, 2 µg/mL (≈ 4.09 µM).
